Experimental data taken from patent US9580416B2, “Inhibitors of Bruton's tyrosine kinase” (PHARMACYCLICS LLC, priority 2014, dated 2017).
Each block holds one molecule with its values, some of them ahead of it.

How the values were obtained:
Assay type in all cases: biochemical
Btk = Btk (Homo sapiens, UniProt Q06187); assay: Btk kinase activity, TR-FRET assay; details: read-out: Btk (IC50)
Outline: (§1)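 Enzyme (Btk 0.5 nM; Lck 6 nM) reacted 1 h with inhibitor, ATP at Km and biotin-peptide substrate in pH 7.4 buffer, 10% DMSO. Phosphopeptide detected by Eu-p-Tyr100 antibody plus streptavidin-APC (665/615 nm). IC50 calculated from fitted Ki(app) via ATP/Km correction plus half total enzyme.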

Lck = Lck (Homo sapiens, UniProt P06239); assay: Lck kinase activity, TR-FRET assay; details: read-out: LCK (IC50)
Lck, sequence (P06239 whole entry, species assumed): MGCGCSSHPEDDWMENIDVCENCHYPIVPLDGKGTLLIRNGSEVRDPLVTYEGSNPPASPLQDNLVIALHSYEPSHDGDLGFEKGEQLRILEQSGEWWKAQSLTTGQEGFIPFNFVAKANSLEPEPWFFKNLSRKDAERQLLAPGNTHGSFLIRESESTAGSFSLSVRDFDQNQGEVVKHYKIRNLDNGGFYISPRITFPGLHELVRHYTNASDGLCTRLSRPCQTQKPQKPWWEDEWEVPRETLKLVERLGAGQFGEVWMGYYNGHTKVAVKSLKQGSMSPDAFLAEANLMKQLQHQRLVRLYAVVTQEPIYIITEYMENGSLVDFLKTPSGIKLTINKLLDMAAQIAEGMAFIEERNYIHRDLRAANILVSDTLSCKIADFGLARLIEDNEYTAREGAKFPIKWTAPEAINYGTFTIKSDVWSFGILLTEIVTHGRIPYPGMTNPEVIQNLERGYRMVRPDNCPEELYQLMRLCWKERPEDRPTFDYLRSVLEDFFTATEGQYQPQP
Outline: as §1

EGFR = EGFR (Homo sapiens, UniProt P00533); assay: Inhibition of a panel of kinases, in vitro HotSpot kinase assay: EGFR
EGFR, sequence (P00533 25-1210): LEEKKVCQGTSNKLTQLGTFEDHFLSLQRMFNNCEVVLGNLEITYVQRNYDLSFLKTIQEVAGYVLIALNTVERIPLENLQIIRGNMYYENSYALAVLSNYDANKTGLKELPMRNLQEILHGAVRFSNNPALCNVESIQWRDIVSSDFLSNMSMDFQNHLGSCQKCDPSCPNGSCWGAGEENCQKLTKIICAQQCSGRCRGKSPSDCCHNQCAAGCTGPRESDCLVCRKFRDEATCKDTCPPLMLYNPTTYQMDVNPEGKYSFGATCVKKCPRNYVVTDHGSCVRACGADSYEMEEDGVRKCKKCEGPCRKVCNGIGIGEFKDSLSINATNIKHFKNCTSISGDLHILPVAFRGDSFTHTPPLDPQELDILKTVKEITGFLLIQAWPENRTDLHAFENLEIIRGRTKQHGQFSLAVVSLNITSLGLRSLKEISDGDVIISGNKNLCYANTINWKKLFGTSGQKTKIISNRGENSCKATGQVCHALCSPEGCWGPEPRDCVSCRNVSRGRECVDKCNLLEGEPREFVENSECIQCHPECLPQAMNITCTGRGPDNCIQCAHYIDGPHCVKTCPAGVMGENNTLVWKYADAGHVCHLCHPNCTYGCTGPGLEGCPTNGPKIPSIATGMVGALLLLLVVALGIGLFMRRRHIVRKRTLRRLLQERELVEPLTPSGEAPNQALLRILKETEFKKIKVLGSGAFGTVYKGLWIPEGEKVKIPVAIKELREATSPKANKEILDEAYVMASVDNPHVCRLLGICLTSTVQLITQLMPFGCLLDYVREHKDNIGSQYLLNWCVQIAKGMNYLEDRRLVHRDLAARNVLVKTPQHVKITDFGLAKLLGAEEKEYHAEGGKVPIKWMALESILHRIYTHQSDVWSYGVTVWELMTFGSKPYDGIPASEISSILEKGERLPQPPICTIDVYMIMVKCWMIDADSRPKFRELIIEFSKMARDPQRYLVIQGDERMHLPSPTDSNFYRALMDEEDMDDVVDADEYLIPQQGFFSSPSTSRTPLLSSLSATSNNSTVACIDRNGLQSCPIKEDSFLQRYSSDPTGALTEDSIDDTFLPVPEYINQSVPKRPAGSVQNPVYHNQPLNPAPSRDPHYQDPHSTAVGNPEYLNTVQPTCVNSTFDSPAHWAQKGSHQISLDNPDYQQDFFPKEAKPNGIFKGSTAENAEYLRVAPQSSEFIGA
Procedure: (§2) The degree of inhibition of a panel of kinases is determined using the in vitro HotSpot kinase assay (purified enzymes, ^33P-ATP, an appropriate substrate and 1 uM ATP).

JAK3 = target: T1, JAK3 (Homo sapiens, UniProt P52333); assay: Inhibition of a panel of kinases, in vitro HotSpot kinase assay: JAK3
T1 sequence (P52333 1-1124): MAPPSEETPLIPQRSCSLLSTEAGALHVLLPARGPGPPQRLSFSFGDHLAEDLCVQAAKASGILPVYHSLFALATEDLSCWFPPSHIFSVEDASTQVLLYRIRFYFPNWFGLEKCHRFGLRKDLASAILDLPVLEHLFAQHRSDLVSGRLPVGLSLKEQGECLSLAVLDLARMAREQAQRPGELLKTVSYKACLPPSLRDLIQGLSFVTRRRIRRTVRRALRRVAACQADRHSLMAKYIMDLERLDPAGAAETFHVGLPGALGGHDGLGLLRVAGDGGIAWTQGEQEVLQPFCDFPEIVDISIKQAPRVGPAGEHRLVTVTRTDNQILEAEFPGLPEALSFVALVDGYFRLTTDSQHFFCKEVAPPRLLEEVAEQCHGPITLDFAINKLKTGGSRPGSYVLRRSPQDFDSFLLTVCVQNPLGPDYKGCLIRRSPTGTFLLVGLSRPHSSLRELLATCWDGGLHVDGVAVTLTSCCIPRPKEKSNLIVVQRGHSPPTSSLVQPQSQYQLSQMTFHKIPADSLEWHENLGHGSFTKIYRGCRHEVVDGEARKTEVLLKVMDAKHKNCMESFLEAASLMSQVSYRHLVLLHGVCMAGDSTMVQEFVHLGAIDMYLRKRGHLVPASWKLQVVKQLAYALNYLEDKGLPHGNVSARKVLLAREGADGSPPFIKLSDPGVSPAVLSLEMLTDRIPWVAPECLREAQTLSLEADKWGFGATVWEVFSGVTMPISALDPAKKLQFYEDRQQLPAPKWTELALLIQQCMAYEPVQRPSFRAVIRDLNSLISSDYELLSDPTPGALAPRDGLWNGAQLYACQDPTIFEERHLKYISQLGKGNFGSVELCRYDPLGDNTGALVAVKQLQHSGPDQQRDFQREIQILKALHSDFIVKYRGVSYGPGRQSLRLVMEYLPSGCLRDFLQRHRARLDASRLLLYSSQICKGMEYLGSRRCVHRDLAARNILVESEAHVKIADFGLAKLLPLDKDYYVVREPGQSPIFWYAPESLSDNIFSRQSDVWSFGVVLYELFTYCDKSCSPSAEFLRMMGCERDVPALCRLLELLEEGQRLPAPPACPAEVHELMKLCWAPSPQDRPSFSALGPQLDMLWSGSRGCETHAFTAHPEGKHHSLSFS
Procedure: as §2

Btk, sequence (Q06187 whole entry): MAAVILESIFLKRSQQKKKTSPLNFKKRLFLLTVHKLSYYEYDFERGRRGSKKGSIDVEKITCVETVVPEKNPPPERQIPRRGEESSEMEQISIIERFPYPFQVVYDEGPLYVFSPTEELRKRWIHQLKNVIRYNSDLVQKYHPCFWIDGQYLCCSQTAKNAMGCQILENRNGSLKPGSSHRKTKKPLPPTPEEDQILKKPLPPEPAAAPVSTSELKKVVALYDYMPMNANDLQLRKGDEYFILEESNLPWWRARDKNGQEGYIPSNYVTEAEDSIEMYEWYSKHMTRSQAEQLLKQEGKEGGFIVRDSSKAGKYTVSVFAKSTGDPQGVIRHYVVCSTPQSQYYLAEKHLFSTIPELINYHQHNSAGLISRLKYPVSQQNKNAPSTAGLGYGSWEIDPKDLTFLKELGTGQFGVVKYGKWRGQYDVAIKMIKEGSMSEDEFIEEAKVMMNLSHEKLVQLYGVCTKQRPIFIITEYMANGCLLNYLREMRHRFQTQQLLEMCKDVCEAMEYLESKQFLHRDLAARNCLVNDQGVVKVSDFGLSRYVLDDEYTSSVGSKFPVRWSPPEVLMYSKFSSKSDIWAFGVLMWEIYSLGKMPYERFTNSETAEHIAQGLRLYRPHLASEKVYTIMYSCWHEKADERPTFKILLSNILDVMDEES

Structure (SMILES): CN1CCc2sc(NC(=O)c3ccc(Oc4ccnc5[nH]nc(N[C@@H]6CCCN(C(=O)/C=C/CN(C)C7CC7)C6)c45)cc3)nc2C1 [compound 137, 4-[(3-{[(3R)-1-[(2E)-4-[cyclopropyl(methyl)amino]but-2-enoyl]piperidin-3-yl]amino}-1H-pyrazolo[3,4-b]pyridin-4-yl)oxy]-N-{5-methyl-4H,5H,6H,7H-[1,3]thiazol[4,5-c]pyridin-2-yl}benzamide]
IC50 (Btk): 0.1 to 1 µM
IC50 (Lck): > 10 µM
IC50 (EGFR): > 10 µM
IC50 (JAK3): > 10 µM

Structure (SMILES): Cc1cc(NC(=O)c2cccc(Oc3ccnc4[nH]nc(N[C@H]5CCN(C(=O)c6ccc(F)cc6)C5)c34)c2)ccc1C(C)C [compound 128, 3-[(3-{[(3S)-1-(4-fluorobenzoyl)pyrrolidin-3-yl]amino}-1H-pyrazolo[3,4-b]pyridin-4-yl)oxy]-N-[3-methyl-4-(propan-2-yl)phenyl]benzamide]
IC50 (Btk): 0.1 to 1 µM
IC50 (Lck): < 0.1 µM
IC50 (EGFR): > 10 µM
IC50 (JAK3): > 10 µM

Structure (SMILES): CCNC(=O)N1CCC[C@@H](Nc2n[nH]c3nccc(Oc4ccc(Oc5ccccc5)cc4C)c23)C1 [compound 235, (3R)-N-ethyl-3-{[4-(2-methyl-4-phenoxyphenoxy)-1H-pyrazolo[3,4-b]pyridin-3-yl]amino}piperidine-1-carboxamide]
IC50 (Btk): < 0.1 µM
IC50 (EGFR): 1 to 10 µM
IC50 (JAK3): > 10 µM

Structure (SMILES): COCCNc1n[nH]c2nccc(Oc3ccc(C(=O)Nc4cc(C(F)(F)F)ccn4)cc3)c12 [compound 236, 4-({3-[(2-methoxyethyl)amino]-1H-pyrazolo[3,4-b]pyridin-4-yl}oxy)-N-[4-(trifluoromethyl)pyridin-2-yl]benzamide]
IC50 (Btk): 0.1 to 1 µM
IC50 (EGFR): 1 to 10 µM
IC50 (JAK3): > 10 µM

Structure (SMILES): Cc1ccnc(NC(=O)c2ccc(Oc3ccnc4[nH]nc(N[C@@H]5CCCN(C(=O)c6ccc(F)cc6)C5)c34)cc2)c1 [compound 243, (R)-4-(3-(1-(4-fluorobenzoyl)piperidin-3-ylamino)-1H-pyrazolo[3,4-b]pyridin-4-yloxy)-N-(4-methylpyridin-2-yl)benzamide]
IC50 (Btk): < 0.1 µM
IC50 (Lck): 1 to 10 µM
IC50 (JAK3): > 10 µM

Structure (SMILES): Cc1ccnc(NC(=O)c2ccc(Oc3ccnc4[nH]nc(N[C@@H]5CCCN(C(=O)c6ncco6)C5)c34)cc2)c1 [compound 240, (R)—N-(4-methylpyridin-2-yl)-4-(3-(1-(oxazole-2-carbonyl)piperidin-3-ylamino)-1H-pyrazolo[3,4-b]pyridin-4-yloxy)benzamide]
IC50 (Btk): < 0.1 µM
IC50 (Lck): 0.1 to 1 µM
IC50 (JAK3): > 10 µM

Structure (SMILES): Cc1ccc(C(=O)N2CCC[C@@H](Nc3n[nH]c4nccc(Oc5ccc(C(=O)Nc6cc(C)ccn6)cc5)c34)C2)cc1 [compound 245, (R)-4-(3-(1-(4-methylbenzoyl)piperidin-3-ylamino)-1H-pyrazolo[3,4-b]pyridin-4-yloxy)-N-(4-methylpyridin-2-yl)benzamide]
IC50 (Btk): < 0.1 µM
IC50 (Lck): 1 to 10 µM
IC50 (JAK3): > 10 µM

Structure (SMILES): COc1ccc(C(=O)N2CCC[C@@H](Nc3n[nH]c4nccc(Oc5ccc(C(=O)Nc6cc(C)ccn6)cc5)c34)C2)cc1 [compound 246, (R)-4-(3-(1-(4-methoxybenzoyl)piperidin-3-ylamino)-1H-pyrazolo[3,4-b]pyridin-4-yloxy)-N-(4-methylpyridin-2-yl)benzamide]
IC50 (Btk): < 0.1 µM
IC50 (Lck): 1 to 10 µM
IC50 (JAK3): > 10 µM

Structure (SMILES): Cc1cc(NC(=O)c2cccc(Nc3ccnc4[nH]nc(N[C@@H]5CCCN(C(=O)c6ccc(F)cc6)C5)c34)c2)ccc1C(C)C [compound 130, 3-[(3-{[(3R)-1-(4-fluorobenzoyl)piperidin-3-yl]amino}-1H-pyrazolo[3,4-b]pyridin-4-yl)amino]-N-[3-methyl-4-(propan-2-yl)phenyl]benzamide]
IC50 (Btk): 0.1 to 1 µM
IC50 (Lck): > 10 µM
IC50 (JAK3): > 10 µM

Structure (SMILES): Cc1ccnc(NC(=O)c2ccc(Oc3ccnc4[nH]nc(N[C@@H]5CCCN(C(=O)c6nccs6)C5)c34)cc2)c1 [compound 241, (R)—N-(4-methylpyridin-2-yl)-4-(3-(1-(thiazole-2-carbonyl)piperidin-3-ylamino)-1H-pyrazolo[3,4-b]pyridin-4-yloxy)benzamide]
IC50 (Btk): < 0.1 µM
IC50 (Lck): 0.1 to 1 µM
IC50 (JAK3): > 10 µM

Structure (SMILES): Cc1ccnc(NC(=O)c2ccc(Oc3ccnc4[nH]nc(N[C@@H]5CCCN(C(=O)c6ccc(Cl)cc6)C5)c34)cc2)c1 [compound 244, (R)-4-(3-(1-(4-chlorobenzoyl)piperidin-3-ylamino)-1H-pyrazolo[3,4-b]pyridin-4-yloxy)-N-(4-methylpyridin-2-yl)benzamide]
IC50 (Btk): < 0.1 µM
IC50 (Lck): 1 to 10 µM
IC50 (JAK3): > 10 µM

Other lines, results leading:

IC50 (Btk): < 0.1 µM
IC50 (Lck): 0.1 to 1 µM
IC50 (EGFR): 1 to 10 µM
IC50 (JAK3): > 10 µM
Structure (SMILES): Cc1ccnc(NC(=O)c2ccc(Oc3ccnc4[nH]nc(N[C@@H]5CCCN(C(=O)N(C)C)C5)c34)cc2)c1 [compound 106, (3R)-N,N-dimethyl-3-[(4-{4-[(4-methylpyridin-2-yl)carbamoyl]phenoxy}-1H-pyrazolo[3,4-b]pyridin-3-yl)amino]piperidine-1-carboxamide]

IC50 (Btk): < 0.1 µM
IC50 (Lck): 0.1 to 1 µM
IC50 (EGFR): 0.1 to 1 µM
IC50 (JAK3): < 0.1 µM
Structure (SMILES): C=CC(=O)N1CCC[C@@H](Nc2n[nH]c3nccc(Oc4ccc(C(=O)Nc5ncc(C)s5)cc4)c23)C1 [compound 140]

IC50 (Btk): < 0.1 µM
IC50 (Lck): 0.1 to 1 µM
IC50 (EGFR): 0.1 to 1 µM
IC50 (JAK3): 0.1 to 1 µM
Structure (SMILES): C=CC(=O)N1CCC[C@@H](Nc2n[nH]c3nccc(Oc4ccc(-c5nc6ccccc6s5)cc4)c23)C1 [compound 192]

IC50 (Btk): < 0.1 µM
IC50 (Lck): 0.1 to 1 µM
IC50 (EGFR): 1 to 10 µM
IC50 (JAK3): > 10 µM
Structure (SMILES): COCCC(=O)N1CCC[C@@H](Nc2n[nH]c3nccc(Oc4ccc(C(=O)Nc5cc(C)ccn5)cc4)c23)C1 [compound 119, 4-[(3-{[(3R)-1-(3-methoxypropanoyl)piperidin-3-yl]amino}-1H-pyrazolo[3,4-b]pyridin-4-yl)oxy]-N-(4-methylpyridin-2-yl)benzamide]

IC50 (Btk): < 0.1 µM
IC50 (Lck): 1 to 10 µM
IC50 (EGFR): > 10 µM
IC50 (JAK3): > 10 µM
Structure (SMILES): Cc1ccnc(NC(=O)c2ccc(Oc3ccnc4[nH]nc(N[C@@H]5CCCN(C(=O)C6CCOCC6)C5)c34)cc2)c1 [compound 105, N-(4-methylpyridin-2-yl)-4-[(3-{[(3R)-1-(oxane-4-carbonyl)piperidin-3-yl]amino}-1H-pyrazolo[3,4-b]pyridin-4-yl)oxy]benzamide]

IC50 (Btk): < 0.1 µM
IC50 (Lck): 0.1 to 1 µM
IC50 (EGFR): 1 to 10 µM
IC50 (JAK3): 1 to 10 µM
Structure (SMILES): CN(C/C=C/C(=O)N1CCC[C@@H](Nc2n[nH]c3nccc(Oc4ccc(C(=O)Nc5nc6ccccc6s5)cc4)c23)C1)C1CC1 [compound 167]

IC50 (Btk): < 0.1 µM
IC50 (Lck): < 0.1 µM
IC50 (EGFR): 1 to 10 µM
IC50 (JAK3): > 10 µM
Structure (SMILES): Cc1ccnc(NC(=O)c2ccc(Oc3ccnc4[nH]nc(N[C@@H]5CCCN(C(=O)CCCN(C)C)C5)c34)cc2)c1 [compound 95]

IC50 (Btk): < 0.1 µM
IC50 (Lck): 0.1 to 1 µM
IC50 (EGFR): > 10 µM
IC50 (JAK3): > 10 µM
Structure (SMILES): Cc1ccnc(NC(=O)c2ccc(Oc3ccnc4[nH]nc(N[C@@H]5CCCN(C(=O)C6(C#N)CC6)C5)c34)cc2)c1 [compound 101, 4-[(3-{[(3R)-1-(1-cyanocyclopropanecarbonyl)piperidin-3-yl]amino}-1H-pyrazolo[3,4-b]pyridin-4-yl)oxy]-N-(4-methylpyridin-2-yl)benzamide]

IC50 (Btk): < 0.1 µM
IC50 (Lck): 0.1 to 1 µM
IC50 (EGFR): 0.1 to 1 µM
IC50 (JAK3): 0.1 to 1 µM
Structure (SMILES): CN(C)C/C=C/C(=O)N(C)[C@H]1CC[C@@H](Nc2n[nH]c3nccc(Oc4cccc(Oc5ccccc5)c4)c23)CC1 [compound 21, (2E)-4-(dimethylamino)-N-methyl-N-[(1s,4s)-4-{[4-(3-phenoxyphenoxy)-1H-pyrazolo[3,4-b]pyridin-3-yl]amino}cyclohexyl]but-2-enamide]
